In general, IC50 refers to the concentration needed to halve the response being measured. Lower therefore signals greater potency in that assay.

This assay deals with Plasmodium falciparum. As to the kind of experiment: Growth inhibition of chloroquine-resistant Plasmodium falciparum K1 by [3H]hypoxanthine uptake. The format is functional, organism-based.
Take “1-(1-Naphthalenyl)-3-ferrocenyl-2-propen-1-one”: the IC50 stood at 47.4 µM.

The substance “1-(2,3,4-Trimethoxyphenyl)-3-ferrocenyl-2-propen-1-one” displayed an IC50 of 22.5 µM.

Regarding “1-(2,4-Dihydroxyphenyl)-3-ferrocenyl-2-propen-1-one”, half-maximal inhibition (IC50) required 31.5 µM.

For the substance “1-(2,4-Dimethoxyphenyl)-3-ferrocenyl-2-propen-1-one”, the IC50 worked out at 24.5 µM.

The substance “1-(2-Hydroxyphenyl)-3-ferrocenyl-2-propen-1-one” returned an IC50 of 73.5 µM.

On to “1-(2-Naphthalenyl)-3-ferrocenyl-2-propen-1-one”, for which inhibition was half-maximal at 21 µM (IC50).

As to “1-(3-pyridyl)-3-ferrocenyl-2-propen-1-one”, it took 4.6 µM to reach half-maximal inhibition (IC50).

Substance “1-(4-Butoxyphenyl)-3-ferrocenyl-2-propen-1-one” came in with an IC50 of 80 µM.

As to “1-(4-Ethoxyphenyl)-3-ferrocenyl-2-propen-1-one”, the IC50 is 200 µM.

For the substance “1-(4-Hydroxyphenyl)-3-ferrocenyl-2-propen-1-one”, half-maximal inhibition (IC50) required 36 µM.

With “1-(4-Methoxyphenyl)-3-ferrocenyl-2-propen-1-one”, the IC50 worked out at 410 µM.

Consider 1-(phenyl)-3-ferrocenyl-2-propen-1-one, for which half-maximal inhibition (IC50) required 175 µM.

In turn, “1-ferrocenyl-3-(1-Naphthalenyl)-2-propen-1-one” displayed an IC50 of 48.3 µM.

Substance “1-ferrocenyl-3-(2,4-Dichlorophenyl)-2-propen-1-one” displayed an IC50 of 29.4 µM.

As for “1-ferrocenyl-3-(2,4-Difluorophenyl)-2-propen-1-one”, half-maximal inhibition (IC50) was put at 23.2 µM.

“1-ferrocenyl-3-(2,4-Dimethoxyphenyl)-2-propen-1-one” returned a half-maximal inhibitory concentration (IC50) of 18 µM.

“1-ferrocenyl-3-(2-Chlorophenyl)-2-propen-1-one” displayed an IC50 of 42.4 µM.

The substance “1-ferrocenyl-3-(2-Naphthalenyl)-2-propen-1-one” gave an IC50 of 73.5 µM.

“1-ferrocenyl-3-(3-Chlorophenyl)-2-propen-1-one” came in with an IC50 of 36.2 µM.

With “1-ferrocenyl-3-(3-Quinolinyl)-2-propen-1-one”, the midpoint of inhibition, the IC50, lay at 18.2 µM.

On to “1-ferrocenyl-3-(3-pyridinyl)-2-propen-1-one”, for which it took 17 µM to reach half-maximal inhibition (IC50).

Turning to “1-ferrocenyl-3-(4-Chlorophenyl)-2-propen-1-one”, the IC50 came to 14.5 µM.

“1-ferrocenyl-3-(4-Cyanophenyl)-2-propen-1-one” gave an IC50 of 26.5 µM.

“1-ferrocenyl-3-(4-Fluorophenyl)-2-propen-1-one” yielded an IC50 of 12.1 µM.

The substance “1-ferrocenyl-3-(4-Hydroxyphenyl)-2-propen-1-one” displayed an IC50 of 20.6 µM.

Regarding “1-ferrocenyl-3-(4-Methoxyphenyl)-2-propen-1-one”, it took 17 µM to reach half-maximal inhibition (IC50).

Regarding “1-ferrocenyl-3-(4-Methylphenyl)-2-propen-1-one”, the midpoint of inhibition, the IC50, lay at 147 µM.

“1-ferrocenyl-3-(4-Nitrophenyl)-2-propen-1-one” yielded an IC50 of 5.1 µM.

“1-ferrocenyl-3-(4-Quinolinyl)-2-propen-1-one” showed an IC50 of 14 µM.

In the case of “1-ferrocenyl-3-(4-Trifluoromethylphenyl)-2-propen-1-one”, the IC50 amounted to 58.4 µM.

With 1-ferrocenyl-3-(phenyl)-2-propen-1-one, the IC50 stood at 19 µM.

(Values after ChEMBL document CHEMBL1134883, “Antimalarial activity of ferrocenyl chalcones” (Bioorg Med Chem Lett, 2002).)
